ChEMBL document CHEMBL1151552, “Inhibitory activities of herpes simplex viruses type 1 and 2 and human cytomegalovirus by stereoisomers of 2-deoxy-3-oxa-5(E)-(2-bromovinyl)uridines and their 4-thio analogues” (Bioorg Med Chem Lett, 1994)
Values after ≈ are worked out from the molar mass of the structure shown.

How the values were obtained:
F2002 cell line = assay: Inhibitory activity against human cytomegalo virus (WFI strain) in a plaque reduction assay in flow 2002 human fibroblast cells; assay type: functional, cell-based
[1] = Cytotoxicity in Flow 2002 cell line; assay type: cell-based; settings: human, Flow 2002 cells
Vero [2] = assay: Inhibitory activity against Herpes Simplex virus type 1 (186 strain) in a Plaque reduction Assay in vero cells; assay type: functional, cell-based; settings: Chlorocebus sabaeus
Vero [3] = assay: Inhibitory activity against Herpes Simplex virus type 1 (KOS strain) in a Plaque reduction Assay in vero cells; assay type: functional, cell-based; settings: Chlorocebus sabaeus
Vero [4] = assay: Cytotoxicity in Vero cell line; assay type: functional; settings: Chlorocebus sabaeus

| SMILES | IC50 (F2002 cell line) | CC50 [1] | IC50 (Vero [2]) | IC50 (Vero [3]) | CC50 (Vero [4]) |
| --- | --- | --- | --- | --- | --- |
| O=c1[nH]c(=O)n([C@@H]2CO[C@H](CO)O2)cc1/C=C/Br | 5 µg/mL (≈ 15.7 µM) | 30 µg/mL (≈ 94 µM) | > 30 µg/mL | 0.3 µg/mL (≈ 0.94 µM) | 100 µg/mL (≈ 313 µM) |
| O=c1[nH]c(=O)n([C@@H]2CO[C@H](CO)S2)cc1/C=C/Br | > 100 µg/mL | 100 µg/mL (≈ 298 µM) | > 100 µg/mL | > 100 µg/mL | > 100 µg/mL |
| O=c1[nH]c(=O)n([C@H]2CO[C@H](CO)S2)cc1/C=C/Br | > 100 µg/mL | > 100 µg/mL | 30 µg/mL (≈ 89.5 µM) | > 30 µg/mL | 100 µg/mL (≈ 298 µM) |
| O=c1[nH]c(=O)n([C@H]2CO[C@@H](CO)O2)cc1/C=C/Br | > 100 µg/mL | > 100 µg/mL | > 30 µg/mL | > 30 µg/mL | 100 µg/mL (≈ 313 µM) |
| O=c1[nH]c(=O)n([C@@H]2CO[C@@H](CO)O2)cc1/C=C/Br | 25 µg/mL (≈ 78.3 µM) | 100 µg/mL (≈ 313 µM) | > 30 µg/mL | > 30 µg/mL | 100 µg/mL (≈ 313 µM) |
| O=c1[nH]c(=O)n([C@H]2CO[C@H](CO)O2)cc1/C=C/Br | > 30 µg/mL | 30 µg/mL (≈ 94 µM) | > 30 µg/mL | 3.4 µg/mL (≈ 10.7 µM) | 100 µg/mL (≈ 313 µM) |
| O=c1[nH]c(=O)n([C@@H]2CO[C@@H](CO)S2)cc1/C=C/Br | 80 µg/mL (≈ 239 µM) | 100 µg/mL (≈ 298 µM) | > 10 µg/mL | > 10 µg/mL | 30 µg/mL (≈ 89.5 µM) |
| O=c1[nH]c(=O)n([C@H]2CO[C@@H](CO)S2)cc1/C=C/Br | > 100 µg/mL | 100 µg/mL (≈ 298 µM) | 2.9 µg/mL (≈ 8.65 µM) | > 30 µg/mL | 100 µg/mL (≈ 298 µM) |
| Nc1nc2c(ncn2COCCO)c(=O)[nH]1 [ACYCLOVIR] | – | – | 0.5 µg/mL (≈ 2.22 µM) | 0.1 µg/mL (≈ 0.444 µM) | > 10 µg/mL |
| Nc1nc2c(ncn2COC(CO)CO)c(=O)[nH]1 [GANCICLOVIR] | 0.1 µg/mL (≈ 0.392 µM) | > 100 µg/mL | – | – | – |
